ChEMBL document CHEMBL3352542, “Synthesis, biological evaluation and molecular modeling study of 2-(1,3,4-thiadiazolyl-thio and 4-methyl-thiazolyl-thio)-quinazolin-4-ones as a new class of DHFR inhibitors” (Bioorg Med Chem Lett, 2014)
Activity calls are given as the source filed them. The calls are words filed in the database; no cut-off is given here.

Experiments:
A498 = assay: Growth inhibition of human A498 cells at 10 uM after 48 hrs; type: functional
Candida albicans = assay: Antimicrobial activity against Candida albicans assessed as inhibition zone at 200 ug/disk after 24 hrs by disc-diffusion method; type: functional; conditions: read-out: IZ
[1] = (§1) Growth inhibition of human UACC62 cells at 10 uM after 48 hrs; type: functional; conditions: UACC-62, 48 h, read-out: GI
MDA-MB-231 = assay: Growth inhibition of human MDA-MB-231 cells at 10 uM after 48 hrs; type: functional
Pseudomonas aeruginosa = assay: Antimicrobial activity against Pseudomonas aeruginosa assessed as inhibition zone at 200 ug/disk after 24 hrs by disc-diffusion method; type: functional; conditions: read-out: IZ
[2] = (§2) Growth inhibition of human UO31 cells at 10 uM after 48 hrs; type: functional; conditions: UO-31, 48 h, read-out: GI
Bacillus subtilis [3] = assay: Antimicrobial activity against Bacillus subtilis assessed as inhibition zone at 200 ug/disk after 24 hrs by disc-diffusion method; type: functional; conditions: read-out: IZ
CAKI-1 = assay: Growth inhibition of human CAKI-1 cells at 10 uM after 48 hrs; type: functional
Dihydrofolate reductase = target: T1, Dihydrofolate reductase (Bos taurus, UniProt P00376); assay: Inhibition of bovine liver DHFR
T1 sequence (P00376 whole entry): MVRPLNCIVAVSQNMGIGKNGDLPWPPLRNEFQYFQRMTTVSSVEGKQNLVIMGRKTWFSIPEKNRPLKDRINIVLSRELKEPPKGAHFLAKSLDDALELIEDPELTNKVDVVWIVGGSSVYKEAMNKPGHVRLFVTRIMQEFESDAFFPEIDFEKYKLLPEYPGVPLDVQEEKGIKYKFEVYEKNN

[4] = (§3) Growth inhibition of human HCT116 cells at 10 uM after 48 hrs; type: functional; conditions: HCT-116, 48 h, read-out: GI
Escherichia coli [5] = assay: Antimicrobial activity against Escherichia coli assessed as inhibition zone at 200 ug/disk after 24 hrs by disc-diffusion method; type: functional; conditions: read-out: IZ
SR = assay: Growth inhibition of human SR cells at 10 uM after 48 hrs; type: functional
[6] = (§4) Growth inhibition of human HOP92 cells at 10 uM after 48 hrs; type: functional; conditions: HOP-92, 48 h, read-out: GI
HL-60(TB) = assay: Growth inhibition of human HL-60(TB) cells at 10 uM after 48 hrs; type: functional
[7] = (§5) Growth inhibition of human PC3 cells at 10 uM after 48 hrs; type: functional; conditions: PC-3, 48 h, read-out: GI
[8] = (§6) Growth inhibition of human RXF393 cells at 10 uM after 48 hrs; type: functional; conditions: RXF 393, 48 h, read-out: GI
Staphylococcus aureus [9] = assay: Antimicrobial activity against Staphylococcus aureus assessed as inhibition zone at 200 ug/disk after 24 hrs by disc-diffusion method; type: functional; conditions: read-out: IZ
[10] = (§7) Growth inhibition of human SF539 cells at 10 uM after 48 hrs; type: functional; conditions: SF-539, 48 h, read-out: GI
UACC-62 = assay: as §1; type: functional
Hs-578T = assay: Growth inhibition of human Hs 578T cells at 10 uM after 48 hrs; type: functional
HCT-15 = assay: Growth inhibition of human HCT15 cells at 10 uM after 48 hrs; type: functional
A549 = assay: Growth inhibition of human A549 cells at 10 uM after 48 hrs; type: functional
SF-295 = assay: Growth inhibition of human SF295 cells at 10 uM after 48 hrs; type: functional
UO-31 = assay: as §2; type: functional
RPMI-8226 = assay: Growth inhibition of human RPMI8226 cells at 10 uM after 48 hrs; type: functional
SK-MEL-28 = assay: Growth inhibition of human SK-MEL-28 cells at 10 uM after 48 hrs; type: functional, cell-based
K562 = assay: Growth inhibition of human K562 cells at 10 uM after 48 hrs; type: functional
786-0 = assay: Growth inhibition of human 786-0 cells at 10 uM after 48 hrs; type: functional
NCI-H226 = assay: Growth inhibition of human NCI-H226 cells at 10 uM after 48 hrs; type: functional
Bacillus subtilis [11] = assay: Antimicrobial activity against Bacillus subtilis assessed as inhibition of visible growth after 24 hrs by disc-diffusion method; type: functional, organism-based
MDA-MB-468 = assay: Growth inhibition of human MDA-MB-468 cells at 10 uM after 48 hrs; type: functional
KM12 = assay: Growth inhibition of human KM12 cells at 10 uM after 48 hrs; type: functional
Malme-3M = assay: Growth inhibition of human MALME-3M cells at 10 uM after 48 hrs; type: functional
U-251 = assay: Growth inhibition of human U251 cells at 10 uM after 48 hrs; type: functional
MDA-MB-435 = assay: Growth inhibition of human MDA-MB-435 cells at 10 uM after 48 hrs; type: functional
SK-MEL-5 = assay: Growth inhibition of human SK-MEL-5 cells at 10 uM after 48 hrs; type: functional
MCF7 = assay: Growth inhibition of human MCF7 cells at 10 uM after 48 hrs; type: functional
CCRF-CEM = assay: Growth inhibition of human CCRF-CEM cells at 10 uM after 48 hrs; type: functional
UACC-257 = assay: Growth inhibition of human UACC257 cells at 10 uM after 48 hrs; type: functional
SNB-19 = assay: Growth inhibition of human SNB19 cells at 10 uM after 48 hrs; type: functional
HOP-62 = assay: Growth inhibition of human HOP62 cells at 10 uM after 48 hrs; type: functional
HCT-116 = assay: as §3; type: functional
Staphylococcus aureus [12] = assay: Antimicrobial activity against Staphylococcus aureus assessed as inhibition of visible growth after 24 hrs by disc-diffusion method; type: functional, organism-based
OVCAR-4 = assay: Growth inhibition of human OVCAR4 cells at 10 uM after 48 hrs; type: functional
HOP-92 = assay: as §4; type: functional
NCI-H522 = assay: Growth inhibition of human NCI-H522 cells at 10 uM after 48 hrs; type: functional
PC-3 = assay: as §5; type: functional
Escherichia coli [13] = assay: Antimicrobial activity against Escherichia coli assessed as inhibition of visible growth after 24 hrs by disc-diffusion method; type: functional, organism-based
HT-29 = assay: Growth inhibition of human HT-29 cells at 10 uM after 48 hrs; type: functional
RXF 393 = assay: as §6; type: functional
MOLT-4 = assay: Growth inhibition of human MOLT4 cells at 10 uM after 48 hrs; type: functional
T47D = assay: Growth inhibition of human T47D cells at 10 uM after 48 hrs; type: functional
SF-539 = assay: as §7; type: functional

In the case of Cc1ccc(-n2c(Sc3nnc(N)s3)nc3ccc(C)cc3c2=O)cc1, the inhibition of growth at 10 µM (A498; A498, 48 h, read-out: GI) is reported as 14.2%, the zone of inhibition at 200 µg/disc (Candida albicans) is reported as 8 mm and the inhibition of growth at 10 µM [1] is reported as 14.8%. The inhibition of growth at 10 µM (MDA-MB-231; MDA-MB-231, 48 h, read-out: GI) was 21.9%, the zone of inhibition at 200 µg/disc (Pseudomonas aeruginosa) was 8 mm and the inhibition of growth at 10 µM [2] was 23.2%. For the same molecule, the zone of inhibition at 200 µg/disc (Bacillus subtilis [3]) was 8 mm, the inhibition of growth at 10 µM (CAKI-1; CAKI-1, 48 h, read-out: GI) was 10.4% and the IC50 (Dihydrofolate reductase) was 8 µM. It also gave an inhibition of growth at 10 µM [4] of 11.6%, a zone of inhibition at 200 µg/disc (Escherichia coli [5]) of 8 mm and an inhibition of growth at 10 µM (SR; read-out: GI) of 32.7%. The inhibition of growth at 10 µM [6] was 21.1%, the inhibition of growth at 10 µM (HL-60(TB); HL-60, 48 h, read-out: GI) was 28.2% and the inhibition of growth at 10 µM [7] was 11.8%. It also gave an inhibition of growth at 10 µM [8] of 10.5%, a zone of inhibition at 200 µg/disc (Staphylococcus aureus [9]) of 8 mm and an inhibition of growth at 10 µM [10] of 15.6%.

In the case of Cc1ccc2nc(Sc3nnc(N)s3)n(-c3ccc(Cl)cc3)c(=O)c2c1, the “growth inhibition (GI)” value (A498) is reported as “inactive”, the zone of inhibition at 200 µg/disc (Candida albicans) is reported as 8 mm and the “growth inhibition (GI)” value (UACC-62) is reported as “inactive”. The “growth inhibition (GI)” value (MDA-MB-231) was “inactive”, the “growth inhibition (GI)” value (Hs-578T) was “inactive” and the zone of inhibition at 200 µg/disc (Pseudomonas aeruginosa) was 12 mm. The “growth inhibition (GI)” value (HCT-15) was “inactive”, the “growth inhibition (GI)” value (A549) was “inactive” and the “growth inhibition (GI)” value (SF-295) was “inactive”. For the same molecule, the “growth inhibition (GI)” value (UO-31) was “inactive”, the “growth inhibition (GI)” value (RPMI-8226) was “inactive” and the “growth inhibition (GI)” value (SK-MEL-28) was “inactive”. The “growth inhibition (GI)” value (K562) was “inactive”, the “growth inhibition (GI)” value (786-0) was “inactive” and the “growth inhibition (GI)” value (NCI-H226) was “inactive”. The Activity (Bacillus subtilis [11]) was “Active”, the “growth inhibition (GI)” value (MDA-MB-468) was “inactive” and the “growth inhibition (GI)” value (KM12) was “inactive”. The “growth inhibition (GI)” value (Malme-3M) was “inactive”, the “growth inhibition (GI)” value (U-251) was “inactive” and the zone of inhibition at 200 µg/disc (Bacillus subtilis [3]) was 26 mm. For the same molecule, the “growth inhibition (GI)” value (MDA-MB-435) was “inactive”, the “growth inhibition (GI)” value (CAKI-1) was “inactive” and the IC50 (Dihydrofolate reductase) was 0.7 µM. For the same molecule, the “growth inhibition (GI)” value (SK-MEL-5) was “inactive”, the “growth inhibition (GI)” value (MCF7) was “inactive” and the “growth inhibition (GI)” value (CCRF-CEM) was “inactive”. For the same molecule, the “growth inhibition (GI)” value (UACC-257) was “inactive”, the “growth inhibition (GI)” value (SNB-19) was “inactive” and the “growth inhibition (GI)” value (HOP-62) was “inactive”. For the same molecule, the “growth inhibition (GI)” value (HCT-116) was “inactive”, the zone of inhibition at 200 µg/disc (Escherichia coli [5]) was 18 mm and the “growth inhibition (GI)” value (SR) was “inactive”. For the same molecule, the Activity (Staphylococcus aureus [12]) was “Active”, the “growth inhibition (GI)” value (OVCAR-4) was “inactive” and the “growth inhibition (GI)” value (HOP-92) was “inactive”. For the same molecule, the “growth inhibition (GI)” value (NCI-H522) was “inactive”, the “growth inhibition (GI)” value (HL-60(TB)) was “inactive” and the “growth inhibition (GI)” value (PC-3) was “inactive”. The Activity (Escherichia coli [13]) was “Active”, the “growth inhibition (GI)” value (HT-29) was “inactive” and the “growth inhibition (GI)” value (RXF 393) was “inactive”. The zone of inhibition at 200 µg/disc (Staphylococcus aureus [9]) was 24 mm, the “growth inhibition (GI)” value (MOLT-4) was “inactive” and the “growth inhibition (GI)” value (T47D) was “inactive”. For the same molecule, the “growth inhibition (GI)” value (SF-539) was “inactive”.
